The target in the experiment is A2A adenosine receptor (UniProt P29274). Put plainly: A2A radioligand competitive binding assay (3H-MSX-2 displacement). The arrangement: species or system human. To be noted: competitive binding vs 2 nM 3H-MSX-2, 15 ug A2A membrane, 23° C., 2 hours. An excerpt:
A tritiated adenosine A2A antagonist, 3-(3-hydroxypropyl)-7-methyl-8-(m-methoxystyryl)-1-propargylxanthine, (3H-MSX-2, specific activity: 80 Ci/mmol), was purchased from American Radiolabeled Chemicals, Inc (St. Louis, Mo.). A tritiated adenosine A1 antagonist, 1,3-Dipropyl-8-cyclopentylxanthine ([^3H]DPCPX, specific activity: 120 Ci/mmol) was purchased from Perkin Elmer (Boston, Mass.). A tritiated adenosine A2B antagonist, 4-(2-[7-amino-2-(2-furyl) [1,2,4]triazolo[2,3-a][1,3,5]triazin-5-ylamino]ethyl)phenol ([^3H]ZM241385 specific activity: 27.4 Ci/mmol) was purchased from American Radiolabeled Chemicals, Inc (St. Louis, Mo.). Adenosine Deaminase (ADA) was purchased from Roche Molecular Biochemicals (Nutley, N.J.). GTP was purchased from Sigma. Concentrated stock solution (10 mM) of compounds was dissolved in dimethylsulfoxide (DMSO), stored at −20° C., and diluted in Tris-EDTA buffer (50 mM Tris and 1 mM EDTA, 10 mM MgCl2, pH 7.4) for use in experiments. The final content of dimethylsulfoxide in Tris-EDTA buffer during experiments was not more than 1%. Male Sprague Dawley rats, weighted 250-400 g, 8-10 weeks old, were purchased from Charles River Labs (Wilmington, Mass.).
HEK293 (Human Embryonic Kidney 293) cells stably expressing human A2A adenosine receptor or human A2B adenosine receptor were maintained in DMEM supplemented with 10% fetal bovine serum, 2 mM L-glutamine, 100 IU/ml penicillin, 50 μg/ml streptomycin and 2 μg/ml puromycin. CHO (Chinese Hamster Ovary) cells stably expressing human A1 adenosine receptor or human A3 adenosine receptor were maintained in F12K medium supplemented with 10% fetal bovine serum, 2 mM L-glutamine, 100 IU penicillin, 50 μg/ml streptomycin and 8 μg/ml puromycin. PC12 (rat pheochromocytoma) cells were cultured in F12K medium supplemented with 10% horse serum and 2.5% fetal bovine serum, 2 mM L-glutamine, 100 IU/ml penicillin, and 50 μg/ml streptomycin. All cells were maintained at 37° C. in a humidified 5% CO2/95% air incubator and recultivated 2 times per week.
Cultured cells in 150 mm^2 dishes were washed once with PBS, detached by scrapping, collected with buffer A (10 mM HEPES, 10 mM EDTA, pH 7.4) containing protease inhibitor cocktail. Cells were then homogenized by a handheld homogenizer at a speed of 4.5 for 1 min. The homogenate was centrifuged by a Beckman ultracentrifuge at a speed of 29,000×g for 15 min. The pellets were resuspended in buffer HE (10 mM HEPES, 1 mM EDTA, pH 7.4, with protease inhibitor cocktail), centrifuged again at 29,000×g for 15 min. The crude membrane was resuspended using buffer HE, and protein concentration was measured by the method of Lowery with BSA as standard. Similar procedures were used for membrane preparation for fresh rat tissues. All experimental procedures were done at 4° C. Membranes were aliquot and kept at −80° C.
The binding assays utilized 15 ug of A2A membrane (human recombinant A2A membrane, rat striatal membrane, or PC 12 cell membrane) that had been treated with adenosine deaminase and 50 mM Tris-EDTA buffer (pH=7.4) followed by mixing 2 μL of serially diluted DMSO stock solution of the compounds of this invention at concentrations ranging from 10 μM to 0.1 nM or the control received 2 μL of DMSO alone, then the tritiated antagonist 3-(3-hydroxypropyl)-7-methyl-8-(m-methoxystyryl)-1-propargylxanthine (3H-MSX-2) in Tris-EDTA buffer (50 mM Tris, 1 mM EDTA, 10 mM MgCl2, pH of 7.4) was added to achieve a final concentration of 2 nM. After incubation at 23° C. for 2 hours, the solutions were filtered using a membrane harvester with multiple washing of the membranes (3×). The filter plates were counted in scintillation cocktail affording the amount of displacement ^3H-MSX-2 by the competitive binding compositions of this invention. Radioligand binding data was analyzed using GraphPad Prism version 4.0 (San Diego, Calif.). […]
What is called Ki is a measure of affinity in units of concentration, obtained from inhibition or displacement. A higher Ki goes with weaker binding. As to `CCn1c(=O)[nH]c2sc(/C=C/c3cc(OC)cc(OC)c3)c(C)c2c1=O` [XVIII, 6-[(1E)-2-(3,5-dimethoxyphenyl)vinyl]-3-ethyl-5-methyl-1,3-dihydrothiopheno[2,3-d]pyrimidine-2,4-dione], affinity was put at a Ki of 96 nM.
For `CCn1c(=O)[nH]c2sc(/C=C/c3ccc(Cl)cc3)c(C)c2c1=O` [VII, 6-[(1E)-2-(4-chlorophenyl)vinyl]-3-ethyl-5-methyl-1,3-dihydrothiopheno[2,3-d]pyrimidine-2,4-dione] the value was 320 nM.
In turn, `CCn1c(=O)[nH]c2sc(/C=C/c3ccccc3)c(C)c2c1=O` [III, 6-((1E)-2-phenylvinyl)-3-ethyl-5-methyl-1,3-dihydrothiopheno[2,3-d]pyrimidine-2,4-dione] yielded a Ki of 171 nM.
To `CCn1c(=O)[nH]c2sc(/C=C/c3cccc(F)c3)c(C)c2c1=O` [VI, 6-[(1E)-2-(3-fluorophenyl)vinyl]-3-ethyl-5-methyl-1,3-dihydrothiopheno[2,3-d]pyrimidine-2,4-dione] belongs 242 nM; to `CCn1c(=O)[nH]c2sc(/C=C/c3ccc(F)cc3)c(C)c2c1=O` [IV, 6-[(1E)-2-(4-fluorophenyl)vinyl]-3-ethyl-5-methyl-1,3-dihydrothiopheno[2,3-d]pyrimidine-2,4-dione], 189 nM; to `CCn1c(=O)[nH]c2sc(/C=C/c3cccnc3)c(C)c2c1=O` [XII, 6-((1E)-2-(3-pyridyl)vinyl)-3-ethyl-5-methyl-1,3-dihydrothiopheno[2,3-d]pyrimidine-2,4-dione], 33 nM.
`CCn1c(=O)[nH]c2sc(/C=C/c3ccc(OC)cc3)c(C)c2c1=O` [XIV, 6-[(1E)-2-(4-methoxyphenyl)vinyl]-3-ethyl-5-methyl-1,3-dihydrothiopheno[2,3-d]pyrimidine-2,4-dione] returned a Ki of 119 nM.
To `CCn1c(=O)[nH]c2sc(/C=C/c3ccccc3OC)c(C)c2c1=O` [XVII, 6-[(1E)-2-(2-methoxyphenyl)vinyl]-3-ethyl-5-methyl-1,3-dihydrothiopheno[2,3-d]pyrimidine-2,4-dione] belongs 38 nM.
To `CCn1c(=O)[nH]c2sc(/C=C/c3ccc(C(F)(F)F)cc3)c(C)c2c1=O` [IX, 6-{(1E)-2-[4-(trifluoromethyl)phenyl]vinyl}-3-ethyl-5-methyl-1,3-dihydrothiopheno[2,3-d]pyrimidine-2,4-dione] belongs 674 nM; to `CCn1c(=O)[nH]c2sc(/C=C/c3cccc(OC)c3)c(C)c2c1=O` [XVI, 6-[(1E)-2-(3-methoxyphenyl)vinyl]-3-ethyl-5-methyl-1,3-dihydrothiopheno[2,3-d]pyrimidine-2,4-dione], 104 nM.
For `COc1ccc(/C=C/c2sc3[nH]c(=O)n(CC(C)C)c(=O)c3c2C)cc1OC` [XI, 6-[(1E)-2-(3,4-dimethoxyphenyl)vinyl]-5-methyl-3-(2-methylpropyl)-1,3-dihydrothiopheno[2,3-d]pyrimidine-2,4-dione] the value was 277 nM; for `CCn1c(=O)c2c(C)c(/C=C/c3ccc(OC)c(OC)c3)sc2n(C)c1=O` [I, 6-[(1E)-2-(3,4-dimethoxyphenyl)vinyl]-3-ethyl-1,5-dimethyl-1,3-dihydrothiopheno[2,3-d]pyrimidine-2,4-dione], 220 nM.
`CCn1c(=O)[nH]c2sc(/C=C/c3ccc(-c4ccccc4)cc3)c(C)c2c1=O` [VIII, 6-[(1E)-2-(4-phenylphenyl)vinyl]-3-ethyl-5-methyl-1,3-dihydrothiopheno[2,3-d]pyrimidine-2,4-dione] came in with a Ki of 776 nM.
The compound `CCn1c(=O)c2c(C)c(/C=C/c3ccc(OC)c(OC)c3)sc2n(COCc2ccccc2)c1=O` [II, 6-[(1E)-2-(3,4-dimethoxyphenyl)vinyl]-3-ethyl-5-methyl-1-[(phenylmethoxy)methyl]-1,3-dihydrothiopheno[2,3-d]pyrimidine-2,4-dione] gave an inhibition constant Ki of 866 nM.
`CCn1c(=O)[nH]c2sc(/C=C/c3ccccc3F)c(C)c2c1=O` [XV, 6-[(1E)-2-(2-fluorophenyl)vinyl]-3-ethyl-5-methyl-1,3-dihydrothiopheno[2,3-d]pyrimidine-2,4-dione] registered a Ki of 170 nM.
To `CCn1c(=O)[nH]c2sc(/C=C/c3ccc(OC)c(OC)c3)c(C)c2c1=O` [X, 6-[(1E)-2-(3,4-dimethoxyphenyl)vinyl]-3-ethyl-5-methyl-1,3-dihydrothiopheno[2,3-d]pyrimidine-2,4-dione] belongs 75 nM; to `CCn1c(=O)[nH]c2sc(/C=C/c3ccc(C)cc3)c(C)c2c1=O` [XIII, 6-[(1E)-2-(4-methylphenyl)vinyl]-3-ethyl-5-methyl-1,3-dihydrothiopheno[2,3-d]pyrimidine-2,4-dione], 182 nM.
For `C#CCn1c(=O)c2c(C)c(/C=C/c3ccccc3)sc2n(C)c1=O` [V, 6-((1E)-2-phenylvinyl)-1,5-dimethyl-3-prop-2-ynyl-1,3-dihydrothiopheno[2,3-d]pyrimidine-2,4-dione] the value was 390 nM.
